Measurements taken from US20220409619A1, “INHIBITORS OF HUMAN IMMUNODEFICIENCY VIRUS REPLICATION” (VIIV HEALTHCARE UK (No. 5) LIMITED, priority 2019, published 2022).
Read-outs that look alike come from different tables or passages of the source.

Tests used:
Assay type in all cases: cell-based
[1] = tested on: recombinant NL4-3 virus (nef section replaced with Renilla luciferase gene) in MT-2 cells; test: HIV cell culture assay (antiviral activity, luciferase readout)
How it was run: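 MT-2 cells were infected for 4-5 days with 293T-derived NL4-3 Renilla-luciferase reporter virus in the presence of serial compound dilutions. Luciferase was read with EnduRen live-cell substrate. EC50 was fitted with the median effect equation.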

uninfected MT2 cells = test: Compound cytotoxicity, XTT-based colorimetric assay; settings: day 4, XTT-based colorimetric assay
How it was run: (§1)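 Run under the antiviral-assay protocol but without virus. Viability was read on day 4 and CC50 values were derived from the readout.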

[2] = as above; settings: human; uninfected MT2 cells, day 4, XTT-based colorimetric assay
How it was run: as §1

| Structure (SMILES) | EC50 ([1]; MT-2 cells infected for 4-5 days with recombinant NL4-3 Renilla luciferase virus, luciferase activity, read-out: EC50) | CC50 (uninfected MT2 cells) | EC50 ([1]; Renilla, NL43) | CC50 at 4 days [2] |
| --- | --- | --- | --- | --- |
| Cn1nc(NS(C)(=O)=O)c2c(Cl)ccc(-n3c([C@H](Cc4cc(F)cc(F)c4)NC(=O)Cn4nc(C(F)F)c5c4C(F)(F)[C@@H]4C[C@H]54)nc(-c4ccc(F)cc4F)cc3=O)c21 [Example 3, N-((S)-1-((1P)-1-(4-chloro-1-methyl-3-(methylsulfonamido)-1H-indazol-7-yl)-4-(2,4-difluorophenyl)-6-oxo-1,6-dihydropyrimidin-2-yl)-2-(3,5-difluorophenyl)ethyl)-2-((3bS,4aR)-3-(difluoromethyl)-5,5-difluoro-3b,4,4a,5-tetrahydro-1H-cyclopropa[3,4]cyclopenta[1,2-c]pyrazol-1-yl)acetamide] | 1.7 nM | > 100 nM |  |  |
| Cc1ccnc(-c2cc(=O)n(-c3ccc(Cl)c4c(NS(C)(=O)=O)nn(C)c34)c([C@H](Cc3cc(F)cc(F)c3)NC(=O)Cn3nc(C(F)F)c4c3C(F)(F)[C@@H]3C[C@H]43)n2)c1 (atropisomer, axis not shown; (P)) [Example 16, N-((S)-1-((1P)-1-(4-chloro-1-methyl-3-(methylsulfonamido)-1H-indazol-7-yl)-4-(4-methylpyridin-2-yl)-6-oxo-1,6-dihydropyrimidin-2-yl)-2-(3,5-difluorophenyl)ethyl)-2-((3bS,4aR)-3-(difluoromethyl)-5,5-difluoro-3b,4,4a,5-tetrahydro-1H-cyclopropa[3,4]cyclopenta[1,2-c]pyrazol-1-yl)acetamide] |  |  | 0.31 nM | > 100 nM |
| Cn1nc(NS(C)(=O)=O)c2c(Cl)ccc(-n3c([C@H](Cc4cc(F)cc(F)c4)NC(=O)Cn4nc(C(F)F)c5c4C(F)(F)[C@@H]4C[C@H]54)nc(-c4csc(S(C)(=O)=O)n4)cc3=O)c21 (atropisomer, axis not shown; (P)) [Example 17, N-((S)-1-((1P)-1-(4-chloro-1-methyl-3-(methylsulfonamido)-1H-indazol-7-yl)-4-(2-(methylsulfonyl)thiazol-4-yl)-6-oxo-1,6-dihydropyrimidin-2-yl)-2-(3,5-difluorophenyl)ethyl)-2-((3bS,4aR)-3-(difluoromethyl)-5,5-difluoro-3b,4,4a,5-tetrahydro-1H-cyclopropa[3,4]cyclopenta[1,2-c]pyrazol-1-yl)acetamide] |  |  | 0.81 nM | > 100 nM |
| COc1cnc(-c2cc(=O)n(-c3ccc(Cl)c4c(NS(C)(=O)=O)nn(C)c34)c([C@H](Cc3cc(F)cc(F)c3)NC(=O)Cn3nc(C(F)F)c4c3C(F)(F)[C@@H]3C[C@H]43)n2)cn1 (atropisomer, axis not shown; (P)) [Example 13, N-((S)-1-((1P)-1-(4-chloro-1-methyl-3-(methylsulfonamido)-1H-indazol-7-yl)-4-(5-methoxypyrazin-2-yl)-6-oxo-1,6-dihydropyrimidin-2-yl)-2-(3,5-difluorophenyl)ethyl)-2-((3bS,4aR)-3-(difluoromethyl)-5,5-difluoro-3b,4,4a,5-tetrahydro-1H-cyclopropa[3,4]cyclopenta[1,2-c]pyrazol-1-yl)acetamide] |  |  | 0.2 nM | > 100 nM |
